The data set is described as follows: Solubility of dicamba and its sodium salt.

Molecules are shown by their SMILES.

As to `COc1c(Cl)ccc(Cl)c1C(=O)[O-].[Na+]` [sodium salt of dicamba, sodium dicamba], for the setting “fully neutralized (molar equivalence of 1) sodium salt, water”, the aqueous solubility result was “about 35 wt. % acid equivalent”.

For the compound `COc1c(Cl)ccc(Cl)c1C(=O)O` [dicamba, 3,6-dichloro-2-methoxybenzoic acid], the “amount dissolved in mixtures of a water-miscible glycol and water” value (glycol 30% or higher by weight of the mixture) was “about 45 % by weight of the solution”.

The values above are taken from patent US12193437B2, “Pesticidal compositions” (Monsanto Technology LLC, priority 2016, dated 2025).
